Results from the NIST ThermoML archive (doi:10.1016/j.jct.2017.07.008).

Assay: refractive index (Na D-line) (dimensionless)
Details: 100 kPa, Liquid, Standard Abbe refractometry

O=Cc1cccs1 [2-thiophenealdehyde]
Details	refractive index
283.15 K	1.5924
285.65 K	1.5912
288.15 K	1.59
290.65 K	1.5888
293.15 K	1.5876
295.65 K	1.5864
298.15 K	1.5853
300.65 K	1.5841
303.15 K	1.5829
305.65 K	1.5817
308.15 K	1.5805
310.65 K	1.5793
313.15 K	1.5781
315.65 K	1.5769
318.15 K	1.5757
320.65 K	1.5745
323.15 K	1.5733
325.65 K	1.5721
328.15 K	1.5709
330.65 K	1.5697
333.15 K	1.5685
335.65 K	1.5674
338.15 K	1.5662

OCc1cccs1 [2-thiophenemethanol]
Details	refractive index
283.15 K	1.5713
285.65 K	1.5701
288.15 K	1.569
290.65 K	1.5679
293.15 K	1.5668
295.65 K	1.5657
298.15 K	1.5646
300.65 K	1.5635
303.15 K	1.5624
305.65 K	1.5613
308.15 K	1.5602
310.65 K	1.559
313.15 K	1.5579
315.65 K	1.5568
318.15 K	1.5557
320.65 K	1.5546
323.15 K	1.5535
325.65 K	1.5524
328.15 K	1.5513
330.65 K	1.5502
333.15 K	1.5491
335.65 K	1.548
338.15 K	1.5468
